In the CheMixHub ionic liquid set:

Assay: xn = mol fraction of the nth substance listed

COS(=O)(=O)[O-].Cn1cc[n+](C)c1 + CCOCCO
viscosity [mPa·s], 101 kPa
Conditions	x1 = 0.0009004	x1 = 0.002248	x1 = 0.003592	x1 = 0.004932	x1 = 0.006269	x1 = 0.007602
293.15 K	2.1	2.12	2.14	2.16	2.18	2.21
303.15 K	1.64	1.66	1.68	1.71	1.73	1.75
313.15 K	1.27	1.29	1.32	1.34	1.37	1.39

CCCC[n+]1ccc(C)cc1.O=S(=O)([N-]S(=O)(=O)C(F)(F)F)C(F)(F)F + CCOS(=O)(=O)[O-].CC[n+]1ccn(C)c1
100 kPa
Conditions	viscosity [mPa·s]
293.15 K, x2 = 0.1177	86.8
293.15 K, x2 = 0.3341	116.8
293.15 K, x2 = 0.558	145
303.15 K, x2 = 0.558	86.5
303.15 K, x2 = 0.7776	89.6
313.15 K, x2 = 0.3341	46.2
313.15 K, x2 = 0.6663	58.1
313.15 K, x2 = 0.9487	53.1
323.15 K, x2 = 0.6663	39.8
323.15 K, x2 = 0.7776	39.6
333.15 K, x2 = 0.1177	18.6
333.15 K, x2 = 0.3341	23.1
333.15 K, x2 = 0.558	27.4
333.15 K, x2 = 0.6663	28.5
343.15 K, x2 = 0.0475	13
343.15 K, x2 = 0.1177	14
343.15 K, x2 = 0.6663	21
343.15 K, x2 = 0.7776	21
343.15 K, x2 = 0.9487	19.9
353.15 K, x2 = 0.0475	10.3
353.15 K, x2 = 0.226	12.2

CCCC[N+](CCCC)(CCCC)CCCC.[Cl-] + CC[C@H](C)[C@H](N)C(=O)O
electrical conductivity [S/m], 100 kPa
Conditions	313.15 K	323.15 K	333.15 K	343.15 K	353.15 K
x1 = 0.8889	0.0522	0.0655	0.0876	0.1	0.119
x1 = 0.9	0.0263	0.045	0.0615	0.0789	0.105
x1 = 0.9091	0.0364	0.0499	0.072	0.0843	0.111

CCCC[NH3+].O=[N+]([O-])[O-] + CC[NH3+].O=[N+]([O-])[O-]
electrical conductivity [S/m], 101 kPa, frequency 0.00293 MHz
Conditions	303.15 K	308.15 K	323.15 K
x2 = 0.25	–	0.88	1.38
x2 = 0.75	1.68	–	–

101 kPa
Conditions	viscosity [mPa·s]
303.15 K, x2 = 0.75	42.1
308.15 K, x2 = 0.25	56.1
323.15 K, x2 = 0.25	33.7
333.15 K, x2 = 0.25	25.2
338.15 K, x2 = 0.25	22
338.15 K, x2 = 0.75	15.5
343.15 K, x2 = 0.25	19.4
353.15 K, x2 = 0.25	15.4
353.15 K, x2 = 0.5	13.3

CS(C)=O + CC[NH+](CC)CC.O=P([O-])(O)O
101 kPa, x1 = 1
Conditions	viscosity [mPa·s]
298.15 K	1.99
303.15 K	1.8
308.15 K	1.65

CS(C)=O + CC[n+]1ccn(C)c1.COS(=O)(=O)[O-]
100 kPa, x2 = 0
Conditions	viscosity [mPa·s]
298.15 K	1.99
303.15 K	1.8
308.15 K	1.65
313.15 K	1.54

CC[n+]1ccn(C)c1.[Cl-] + CC[n+]1ccn(C)c1.F[B-](F)(F)F
Conditions	viscosity [mPa·s]
293 K, 101 kPa, x1 = 0.2627	92.4

C[N+]1(CCOCCOCC[N+]2(C)CCCC2)CCCC1.O=S(=O)([N-]S(=O)(=O)C(F)(F)F)C(F)(F)F.O=S(=O)([N-]S(=O)(=O)C(F)(F)F)C(F)(F)F + CC[n+]1ccn(C)c1.N#C[N-]C#N + O=S(=O)([N-]S(=O)(=O)C(F)(F)F)C(F)(F)F.[Li+]
electrical conductivity [S/m], 100 kPa
Conditions	298 K	303 K	313 K	323 K	333 K	343 K
x1 = 0.1484, x2 = 0.7091	0.719	0.844	1.2	1.49	1.86	2.18
x1 = 0.1554, x2 = 0.7427	0.972	1.17	1.56	1.97	2.42	2.85

C[N+]1(CCOCCOCC[N+]2(C)CCCC2)CCCC1.O=S(=O)([N-]S(=O)(=O)C(F)(F)F)C(F)(F)F.O=S(=O)([N-]S(=O)(=O)C(F)(F)F)C(F)(F)F + CC[n+]1ccn(C)c1.O=S(=O)([N-]S(=O)(=O)C(F)(F)F)C(F)(F)F + O=S(=O)([N-]S(=O)(=O)C(F)(F)F)C(F)(F)F.[Li+]
100 kPa, x1 = 0.2689, x2 = 0.5819
Conditions	electrical conductivity [S/m]
298 K	0.282
303 K	0.341
313 K	0.451
323 K	0.63
333 K	0.82
343 K	1.02

C[NH2+]CCC=C1c2ccccc2CCc2ccccc21.[Cl-] + CC[n+]1ccn(C)c1.[Br-] + O
viscosity [mPa·s], 100 kPa
Conditions	288.15 K	298.15 K	308.15 K	318.15 K
x1 = 0.0001985, x2 = 0.0001801	1.149	0.92	0.754	0.638
x1 = 0.0002171, x2 = 0.0007201	1.157	0.927	0.76	0.645
x1 = 0.0002197, x2 = 0.00126	1.164	0.936	0.768	0.653
x1 = 0.0005409, x2 = 0.0001801	1.158	0.928	0.761	0.646
x1 = 0.00056, x2 = 0.001259	1.173	0.944	0.776	0.662
x1 = 0.0005649, x2 = 0.0007199	1.166	0.935	0.768	0.653
x1 = 0.0009071, x2 = 0.0007196	1.176	0.944	0.776	0.66
x1 = 0.0009111, x2 = 0.00018	1.168	0.936	0.769	0.652
x1 = 0.0009287, x2 = 0.001259	1.183	0.952	0.784	0.67
x1 = 0.001275, x2 = 0.001258	1.194	0.962	0.792	0.678
x1 = 0.001279, x2 = 0.0001799	1.179	0.945	0.776	0.659
x1 = 0.001292, x2 = 0.0007194	1.187	0.953	0.784	0.667
x1 = 0.001649, x2 = 0.0007191	1.199	0.963	0.792	0.674
x1 = 0.001657, x2 = 0.0001799	1.19	0.954	0.784	0.666
x1 = 0.001661, x2 = 0.001258	1.206	0.972	0.8	0.686
x1 = 0.002001, x2 = 0.0001798	1.201	0.964	0.792	0.674
x1 = 0.002028, x2 = 0.0007188	1.211	0.974	0.8	0.681
x1 = 0.002029, x2 = 0.001257	1.218	0.982	0.809	0.694
x1 = 0.002358, x2 = 0.0001797	1.213	0.975	0.801	0.682
x1 = 0.002375, x2 = 0.001257	1.231	0.993	0.818	0.702
x1 = 0.002379, x2 = 0.0007186	1.223	0.984	0.808	0.689
x1 = 0.002737, x2 = 0.0001797	1.226	0.986	0.81	0.691
x1 = 0.002745, x2 = 0.001256	1.244	1.004	0.827	0.71
x1 = 0.002757, x2 = 0.0007183	1.236	0.994	0.817	0.698
x1 = 0.00309, x2 = 0.001256	1.258	1.015	0.836	0.718
x1 = 0.003104, x2 = 0.0001796	1.24	0.997	0.819	0.7
x1 = 0.003108, x2 = 0.000718	1.249	1.005	0.826	0.707
x1 = 0.003467, x2 = 0.0001795	1.255	1.008	0.829	0.709
x1 = 0.003489, x2 = 0.0007178	1.263	1.016	0.836	0.716
x1 = 0.00349, x2 = 0.001255	1.272	1.026	0.846	0.725
